Laboratory results taken from US20240246960A1 (adMare Therapeutics Society, priority 2021, published 2024).

Legend:
[1] = Hepatocyte stability assay, human hepatocytes; assay type: in vitro ADME; conditions: for hepatocyte CLint at 1 uM: both sexes, human, cryopreserved hepatocytes, pH 7.3, 0.7 million cells per mL, 1 uM compound
Summary of the method: (§1)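 Pooled cryopreserved hepatocytes (male CD-1 mouse, or mixed-gender human donors; ≥10 each) at 0.7 million viable cells/mL in Krebs-Henseleit buffer pH 7.3, with 1 uM compound (≤0.01% DMSO). Incubated up to 2 h at 37 °C/5% CO2, quenched with acetonitrile; parent compound followed by HPLC-MS/MS peak area.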

[2] = Hepatocyte stability assay, mouse hepatocytes; assay type: in vitro ADME; conditions: for hepatocyte CLint at 1 uM: male, CD-1, mouse, cryopreserved hepatocytes, pH 7.3, 0.7 million cells per mL, 1 uM compound
Summary of the method: as §1

[3] = biological target: T1, DNA-PK phosphorylation at Serine 2056 (Homo sapiens, UniProt P78527); assay: Cellular Assay for Inhibition of DNA-PK Phosphorylation at Serine 2056 (FaDu cells, neocarzinostatin, sandwich ELISA); assay type: cell-based; conditions: Table 1
T1 construct: host or cells: FaDu
Summary of the method: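 Readout was pSer2056 and total DNA-PK, measured by sandwich ELISA on protein-normalized lysates. Prior to lysis, compound was applied to FaDu cells for 1 h (0.3% DMSO), followed by 2 h of 1 μg/mL neocarzinostatin. IC50 values were fitted from log concentration versus % inhibition normalized to DMSO and NCS controls.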

[4] = Microsomal stability assay, mouse liver microsomes

Row | Compound | Hepatocyte Stability (human) % rem. 120 min [1] | hepatocyte CLint at 1 uM [1] | Hepatocyte Stability (mouse) % rem. 120 min [2] | hepatocyte CLint at 1 uM [2] | IC50 [3] | Microsomal Stability (mouse) % rem. 60 min ([4]; 60 min) | microsomal CLint at 0.1 uM ([4]; male, CD-1, mouse, liver microsomes, pH 7.4, Microsomal Stability Mouse Clint, 0.1 mg/mL microsomes, 0.1 uM compound)
1 | c1cnc2cc(N3CCOCC3)nc(O[C@H]3CC[C@@H](Nc4ncnc5ccoc45)CC3)c2c1 [Compound 80a, N-((1s,4s)-4-((7-morpholino-1,6-naphthyridin-5-yl)oxy)cyclohexyl)furo[3,2-d]pyrimidin-4-amine] | G (% remaining = 50-75%) | < 8.2 µL/min/1e6 cells | F (% remaining = 25-50%) | > 8.2 µL/min/1e6 cells | 0.1 to 1 µM | – | –
2 | Cc1nc(N[C@H]2CC[C@@H](Oc3nc(N4CCOCC4)cc4ncccc34)CC2)c2occc2n1 [Compound 81, 2-methyl-N-((1s,4s)-4-((7-morpholino-1,6-naphthyridin-5-yl)oxy)cyclohexyl)furo[3,2-d]pyrimidin-4-amine] | G (% remaining = 50-75%) | < 8.2 µL/min/1e6 cells | F (% remaining = 25-50%) | > 8.2 µL/min/1e6 cells | 0.1 to 1 µM | – | –
3 | c1cnc2cc(N3CCOCC3)nc(O[C@H]3CC[C@@H](Nc4ncnc5occc45)CC3)c2c1 [Compound 82, N-((1s,4s)-4-((7-morpholino-1,6-naphthyridin-5-yl)oxy)cyclohexyl)furo[2,3-d]pyrimidin-4-amine] | F (% remaining = 25-50%) | > 8.2 µL/min/1e6 cells | E (% remaining = 0-25%) | > 8.2 µL/min/1e6 cells | < 0.1 µM | – | –
4 | c1cnc2cc(N3CCOCC3)nc(O[C@H]3CC[C@@H](Nc4ncnc5ccsc45)CC3)c2c1 [Compound 83, N-((1s,4s)-4-((7-morpholino-1,6-naphthyridin-5-yl)oxy)cyclohexyl)thieno[3,2-d]pyrimidin-4-amine] | E (% remaining = 0-25%) | > 8.2 µL/min/1e6 cells | F (% remaining = 25-50%) | > 8.2 µL/min/1e6 cells | < 0.1 µM | – | –
5 | Cn1ccc2nc(N[C@H]3CC[C@@H](Oc4nc(N5CCOCC5)cc5ncccc45)CC3)ncc21 [Compound 87, 5-Methyl-N-((1s,4s)-4-((7-morpholino-1,6-naphthyridin-5-yl)oxy)cyclohexyl)-5H-pyrrolo[3,2-d]pyrimidin-2-amine] | G (% remaining = 50-75%) | < 8.2 µL/min/1e6 cells | F (% remaining = 25-50%) | > 8.2 µL/min/1e6 cells | < 0.1 µM | – | –
6 | c1cnc2cc(N3CCOCC3)nc(O[C@H]3CC[C@@H](Nc4ccn5nccc5n4)CC3)c2c1 [Compound 89, N-((1s,4s)-4-((7-Morpholino-1,6-naphthyridin-5-yl)oxy)cyclohexyl)pyrazolo[1,5-a]pyrimidin-5-amine] | G (% remaining = 50-75%) | < 8.2 µL/min/1e6 cells | F (% remaining = 25-50%) | > 8.2 µL/min/1e6 cells | 0.1 to 1 µM | – | –
7 | O=C(N[C@H]1CC[C@@H](Oc2nc(N3CCOCC3)cc3ncccc23)CC1)c1ccncc1 [Compound 113, N-((1s,4s)-4-((7-morpholino-1,6-naphthyridin-5-yl)oxy)cyclohexyl)isonicotinamide] | G (% remaining = 50-75%) | < 8.2 µL/min/1e6 cells | G (% remaining = 50-75%) | < 8.2 µL/min/1e6 cells | < 0.1 µM | F (% remaining = 25-50%) | > 116 µL/min/mg
8 | COc1cnc(N[C@H]2CC[C@@H](Oc3nc(N4CCOCC4)cc4ncc(NS(C)(=O)=O)cc34)CC2)nc1 [Compound 203, N-(5-(((1s,4s)-4-((5-methoxypyrimidin-2-yl)amino)cyclohexyl)oxy)-7-morpholino-1,6-naphthyridin-3-yl)methanesulfonamide] | G (% remaining = 50-75%) | < 8.2 µL/min/1e6 cells | F (% remaining = 25-50%) | < 8.2 µL/min/1e6 cells | < 0.1 µM | – | –
9 | CS(=O)(=O)Nc1cnc2cc(N3CCOCC3)nc(O[C@H]3CC[C@@H](NC(=O)c4ncco4)CC3)c2c1 [Compound 205, N-((1s,4s)-4-((3-(methylsulfonamido)-7-morpholino-1,6-naphthyridin-5-yl)oxy)cyclohexyl)oxazole-2-carboxamide] | H (% remaining = 75-100%) | < 8.2 µL/min/1e6 cells | H (% remaining = 75-100%) | < 8.2 µL/min/1e6 cells | < 0.1 µM | – | –

The remaining lines, values ahead:

Row | Hepatocyte Stability (human) % rem. 120 min [1] | hepatocyte CLint at 1 uM [1] | Hepatocyte Stability (mouse) % rem. 120 min [2] | hepatocyte CLint at 1 uM [2] | IC50 [3] | Microsomal Stability (mouse) % rem. 60 min ([4]; 60 min) | microsomal CLint at 0.1 uM ([4]; male, CD-1, mouse, liver microsomes, pH 7.4, Microsomal Stability Mouse Clint, 0.1 mg/mL microsomes, 0.1 uM compound) | Compound
10 | H (% remaining = 75-100%) | < 8.2 µL/min/1e6 cells | G (% remaining = 50-75%) | < 8.2 µL/min/1e6 cells | < 0.1 µM | – | – | CS(=O)(=O)Nc1cnc(N[C@H]2CC[C@@H](Oc3nc(N4CCOCC4)cc4ncccc34)CC2)nc1 [Compound 44, N-(2-(((1s,4s)-4-((7-morpholino-1,6-naphthyridin-5-yl)oxy)cyclohexyl)amino)pyrimidin-5-yl)methanesulfonamide]
11 | F (% remaining = 25-50%) | < 8.2 µL/min/1e6 cells | F (% remaining = 25-50%) | > 8.2 µL/min/1e6 cells | < 0.1 µM | – | – | Oc1cnc(N[C@H]2CC[C@@H](Oc3nc(N4CCOCC4)cc4ncccc34)CC2)nc1 [Compound 45, 2-(((1s,4s)-4-((7-morpholino-1,6-naphthyridin-5-yl)oxy)cyclohexyl)amino)pyrimidin-5-ol]
12 | G (% remaining = 50-75%) | < 8.2 µL/min/1e6 cells | G (% remaining = 50-75%) | < 8.2 µL/min/1e6 cells | 1 to 10 µM | – | – | NS(=O)(=O)c1cnc(N[C@H]2CC[C@@H](Oc3nc(N4CCOCC4)cc4ncccc34)CC2)nc1 [Compound 46, 2-(((1s,4s)-4-((7-morpholino-1,6-naphthyridin-5-yl)oxy)cyclohexyl)amino)pyrimidine-5-sulfonamide]
13 | F (% remaining = 25-50%) | < 8.2 µL/min/1e6 cells | F (% remaining = 25-50%) | > 8.2 µL/min/1e6 cells | < 0.1 µM | – | – | Cc1ccnc(N[C@H]2CC[C@@H](Oc3nc(N4CCOCC4)cc4ncccc34)CC2)n1 [Compound 48, 4-methyl-N-((1s,4s)-4-((7-morpholino-1,6-naphthyridin-5-yl)oxy)cyclohexyl)pyrimidin-2-amine]
14 | F (% remaining = 25-50%) | > 8.2 µL/min/1e6 cells | F (% remaining = 25-50%) | > 8.2 µL/min/1e6 cells | 0.1 to 1 µM | – | – | COc1ccnc(N[C@H]2CC[C@@H](Oc3nc(N4CCOCC4)cc4ncccc34)CC2)n1 [Compound 49, 4-methoxy-N-((1s,4s)-4-((7-morpholino-1,6-naphthyridin-5-yl)oxy)cyclohexyl)pyrimidin-2-amine]
15 | G (% remaining = 50-75%) | < 8.2 µL/min/1e6 cells | H (% remaining = 75-100%) | < 8.2 µL/min/1e6 cells | < 0.1 µM | – | – | NC(=O)c1cnc(N[C@H]2CC[C@@H](Oc3nc(N4CCOCC4)cc4ncccc34)CC2)nc1 [Compound 52, 2-(((1s,4s)-4-((7-morpholino-1,6-naphthyridin-5-yl)oxy)cyclohexyl)amino)pyrimidine-5-carboxamide]
16 | G (% remaining = 50-75%) | < 8.2 µL/min/1e6 cells | H (% remaining = 75-100%) | < 8.2 µL/min/1e6 cells | < 0.1 µM | – | – | CN(C)C(=O)c1cnc(N[C@H]2CC[C@@H](Oc3nc(N4CCOCC4)cc4ncccc34)CC2)nc1 [Compound 53, N,N-dimethyl-2-(((1s,4s)-4-((7-morpholino-1,6-naphthyridin-5-yl)oxy)cyclohexyl)amino)pyrimidine-5-carboxamide]
17 | F (% remaining = 25-50%) | > 8.2 µL/min/1e6 cells | F (% remaining = 25-50%) | > 8.2 µL/min/1e6 cells | 0.1 to 1 µM | – | – | c1cnc2cc(N3CCOCC3)nc(O[C@H]3CC[C@@H](Nc4ncc5sccc5n4)CC3)c2c1 [Compound 84, N-((1s,4s)-4-((7-Morpholino-1,6-naphthyridin-5-yl)oxy)cyclohexyl)thieno[3,2-d]pyrimidin-2-amine]
18 | E (% remaining = 0-25%) | > 8.2 µL/min/1e6 cells | E (% remaining = 0-25%) | > 8.2 µL/min/1e6 cells | < 0.1 µM | – | – | c1cnc2cc(N3CCOCC3)nc(O[C@H]3CC[C@@H](Nc4ncc5[nH]ccc5n4)CC3)c2c1 [Compound 85, N-((1s,4s)-4-((7-Morpholino-1,6-naphthyridin-5-yl)oxy)cyclohexyl)-5H-pyrrolo[3,2-d]pyrimidin-2-amine]
19 | E (% remaining = 0-25%) | > 8.2 µL/min/1e6 cells | E (% remaining = 0-25%) | > 8.2 µL/min/1e6 cells | 0.1 to 1 µM | – | – | Cn1cnc2cnc(N[C@H]3CC[C@@H](Oc4nc(N5CCOCC5)cc5ncccc45)CC3)nc21 [Compound 88, 9-Methyl-N-((1s,4s)-4-((7-morpholino-1,6-naphthyridin-5-yl)oxy)cyclohexyl)-9H-purin-2-amine]
